Experimental findings from patent US11092596B2, “Material and method to screen proteasome stimulators” (Purdue Research Foundation, priority 2017, dated 2021) are described below.

The target in experiment [1] is chymotrypsin-like activity of the immunoproteasome core particle (iCP) (Homo sapiens, UniProt P28062). The experiment in a line: Kinetic assay, CT-L FRET reporter with immunoproteasome. The following applies: 25 μM compound. In kind it is biochemical. As for the experimental part: Compounds 1, 2, and 3 were screened with the immunoproteasome in triplicate using the CT-L FRET reporter.
To each well was added 40 μL 20 μM CT-L FRET reporter (in Tris-HCl, 50 mM, pH 7.7). To the reporter background wells was added 5 μL Tris-HCl and 5 μL 1:1 Tris-HCl:DMSO. Similarly, to the control wells was added 5 μL 1:1 Tris-HCl:DMSO. To the test wells was added 2.5 μL Tris-HCl and 2.5 μL of a 500 μM solution of the compound of interest in DMSO. […] Immediately prior to running the assay on the Synergy 4 Plate Reader, 5 μL purified 26S proteasome (62.5 μg/mL in Tris-HCl) was added to the control and test wells.
The assay was performed using the Synergy 4 plate reader as described for the general screening kinetic assay procedure.

Experiment [2] addresses T1, chymotrypsin-like activity of the 20S CP (Homo sapiens, UniProt P28074).
T1 construct: 5 μL purified 20S proteasome (90 nM in Tris-HCl) was added to the control and test wells
Nature of the experiment: Kinetic assay, CT-L FRET reporter hydrolysis by purified 20S CP. In kind it is biochemical. The following applies: CT-L FRET reporter; for EC50: dose response 0.78125-400 μM, triplicate, read-out: EC50 (concentration of half of the maximum stimulation) for 20S CP stimulation. On the procedure:
Plate preparation for the kinetic assay was performed similarly for all assays. All 96-well plates contained the following in triplicate: reporter background, containing reporter only, and control wells, containing reporter and purified 20S CP. It was determined that each well will contain a total volume of 50 μL. To each well was added 40 μL of the coumarin or FRET reporters (in Tris-HCl, 50 mM, pH 7.7). To the reporter background wells was added 7.5 μL Tris-HCl and 2.5 μL of the solvent in which the compound of interest was dissolved or diluted. Similarly, to the control wells was added 2.5 μL Tris-HCl and 2.5 μL of the solvent in which the compound of interest was dissolved or diluted. To the test wells was added 2.5 μL Tris-HCl and 2.5 μL of the compound of interest at a predetermined concentration. Immediately prior to running the assay on the Synergy 4 Plate Reader, 5 μL purified 20S proteasome (90 nM in Tris-HCl) was added to the control and test wells.
The Synergy 4 Plate Reader was set to heat the plate at 37° C. and read fluorescence every 2 min over a 40 min period. The excitation and emission wavelengths were set according to the reporter. For the FRET reporter, the excitation and emission wavelengths were set to 335 nm and 493 nm, respectively, corresponding to the excitation and emission wavelengths of the Edans fluorophore. For the coumarin reporter, the excitation and emission wavelengths were set to 380 nm and 460 nm, respectively.
(§1) AM-404 was used as a positive control compound to test the dose-response screening capabilities of the CT-L FRET reporter. The following concentrations of AM-404 were tested in triplicate: 50, 25, and 12.5 μM. To each well was added 40 μL 20 μM CT-L FRET (in Tris-HCl, 50 mM, pH 7.7). To the reporter background wells was added 5 μL Tris-HCl and 5 μL 1:1 Tris-HCl:DMSO. Similarly, to the control wells was added 5 μL 1:1 Tris-HCl:DMSO. To the 50 μM AM-404 test wells was added 2.5 μL Tris-HCl and 2.5 μL 1000 μM AM-404 in DMSO. To the 25 μM AM-404 test wells was added 2.5 μL Tris-HCl and 2.5 μL 500 μM AM-404 in DMSO. To the 12.5 μM AM-404 test wells was added 2.5 μL Tris-HCl and 2.5 μL 250 μM AM-404 in DMSO. Immediately prior to running the assay on the Synergy 4 Plate Reader, 5 μL purified 20S proteasome (90 nM in Tris-HCl) was added to the control and test wells. The assay was performed using the Synergy 4 plate reader as described for the general screening kinetic assay procedure.
as §1, with “Fenofibrate was” for “AM-404 was”, “a negative” for “a positive”, “of fenofibrate” for “of AM-404”, “μM fenofibrate” for “μM AM-404”, “procedure. […]” for “procedure.”

“Also recorded” adds a separate entry of the source.

Regarding `C[C@H]1[C@H](C)CC[C@]2(C(=O)O)CC[C@]3(C)C(=CC[C@@H]4[C@@]5(C)CC[C@H](O)C(C)(C)[C@@H]5CC[C@]43C)[C@H]12` [Compound 2, ursolic acid], the “ability to stimulate the chymotrypsin-like activity of the iCP” value in experiment [1] is given as “showed an effect; also recorded: stimulate the chymotrypsin-like activity of the iCP significantly”. Further, the EC50 in experiment [2] came out at 14 µM. Further, the “20S CP stimulation over basal level (dose response curve)” value in experiment [2] (maximum of dose response curve) came out at 100%.

On to `Cc1c(C)c2c(c(C)c1OC(=O)CCC(=O)O)CC[C@@](C)(CCC[C@H](C)CCC[C@H](C)CCCC(C)C)O2` [Compound 3, vitamin E succinate], for which the “ability to stimulate the chymotrypsin-like activity of the iCP” value in experiment [1] is “showed an effect; also recorded: stimulate the chymotrypsin-like activity of the iCP significantly”. Further, the EC50 in experiment [2] is 7 µM.
